Test results as given in US7883730B2, “Rumen protected lysine” (Zinpro Corporation, priority 2007, dated 2011).

Tested on: Lactating Holstein Dairy Cows
Experiment: Feeding evaluation: lactation responses to N-Benzylidene-L-Lysine
Type: in vivo
Text: Evaluation of Feeding N-Benzylidene-L-Lysine Using Lactating Holstein Dairy Cows
All cows received the same base diet. Cows were assigned to one of two treatments: (1) control, (2) control+N-Benzylidene-L-Lysine (TrTA). N-Benzylidene-L-Lysine was supplemented at a rate to supply 40 g of Lys when cows consumed 53.0 lb dry matter/d. The control diet was formulated to be deficient of lysine. “P” refers to the probability value (p-value).

[1] = control diet deficient of lysine plus 40 g Lys from N-Benzylidene-L-Lysine, 14 days

## NCCCC[C@H](N=Cc1ccccc1)C(=O)O [Trt A, N-Benzylidene-L-Lysine]
[1]
  ECM: 81.3 lbs/d
  FCM: 81.2 lbs/d
  Milk: 77.3 lbs/d
Control diet plus 40 g Lys from N-Benzylidene-L-Lysine, 14 days
  ECM/Feed: 1.53
Milk fat content, control diet plus 40 g Lys from N-Benzylidene-L-Lysine, 14 days
  Fat, %: 3.81%
Milk fat yield, control diet plus 40 g Lys from N-Benzylidene-L-Lysine, 14 days
  Fat, lbs/d: 2.94 lbs/d
Milk protein content, control diet plus 40 g Lys from N-Benzylidene-L-Lysine, 14 days
  Protein, %: 3.14%
Milk protein yield, control diet plus 40 g Lys from N-Benzylidene-L-Lysine, 14 days
  Protein, lbs/d: 2.41 lbs/d
Versus lysine-deficient control diet, from Table 1 data
  Lactation response versus control (conclusion in words): produced more milk, more protein and more fat
